From patent US6800672B2, “Biodegradable compositions comprising poly(cycloaliphatic phosphoester) compounds, articles, and methods for using the same” (Guilford Pharmaceuticals, Inc., priority 1997, dated 2004)
“And” between values parts separate entries of the source, which are not always exact repeats. Equal entries are not always repeated. Structures can show the parent of a compound that is named as a salt. Where two headings read alike, the source gives them in different places.

What was measured:
[1] = tested on: melanoma cell line B16/F10 tumors
[2] = tested on: melanoma cell line B16/F10; experiment: Drug sensitivity in an in vitro tumor model; assay type: cell-based; settings: vs cisplatin and 5-FU, even at 0.1 μg/mL
Excerpt: The B16/F10 cells were cultivated in the presence of different concentrations of DOX, cisplatin and 5-FU.

With `COc1cccc2c1C(=O)c1c(O)c3c(c(O)c1C2=O)C[C@@](O)(C(=O)CO)C[C@@H]3O[C@H]1C[C@H](N)[C@H](O)[C@H](C)O1` [Bolus Dox, doxorubicin hydrochloride] the “Number of Mice Survived, 28 days” value ([1]; mouse, in vivo) was 8, the “early death after injection” value ([1]; mouse, in vivo) was “did not produce early death” and the “Number of Mice Survived, 42 days” value ([1]; mouse, in vivo, hydrochloride) was 5 and 3. For the same compound, the “Tumor Volume After Tumor Injection, 28 days” value ([1]; treatment injected Day 3 (3d)) was 1218.9 ± 304.1 mm^3, the “Tumor Volume After Tumor Injection, 42 days” value ([1]; treatment injected Day 3 (3d)) was 3942.5 ± 1818 mm^3 and the “Tumor Volume After Tumor Injection, 28 days” value ([1]; treatment injected Day 7 (7d)) was 1661.2 ± 301.8 mm^3. The “Tumor Volume After Tumor Injection, 42 days” value ([1]; treatment injected Day 7 (7d)) was 4394.3 ± 741.3 mm^3.
`COc1cccc2c1C(=O)c1c(O)c3c(c(O)c1C2=O)C[C@@](O)(C(=O)CO)C[C@@H]3O[C@H]1C[C@H](N)[C@H](O)[C@H](C)O1` [DOX, doxorubicin] was tested, and the “inhibitory effect on the cell culture” value [2] was “strongest inhibitory effect”.
